Results on five compounds are retold here after ChEMBL document CHEMBL1201862, “PubChem BioAssay data set” (2004).

Broadly, the IC50 is the concentration that gives 50% inhibition. In general, EC50 refers to the concentration at which the effect is half-maximal. By AC50 is commonly meant the midpoint of the concentration-response curve, whichever way the signal moves.

Assay [1] concerns the target 14-3-3 protein gamma (Homo sapiens, UniProt P61981). Briefly: modulators of 14-3-3 gamma client binding – dose response (AID 711). It counts as functional.
The nature of assay [2]: viability loss of HPDE-C7K cells – cell-based, fluorescence, HTS, primary screen (AID 431). The assay is classed as functional. The note with it: Homo sapiens.
Assay [3] in a line: HPDE-C7 pancreatic duct cell viability loss – fluorescence, HTS (AID 430). To be noted: Homo sapiens. It counts as functional, cell-based.
In assay [4] the test system is H4. The assay is described as follows: Luminescence Cell-Based Dose Response HTS to Identify Activators of 5'UTR Stem-Loop Driven Prion Protein mRNA Translation in H4 Neuroglioblastoma Cells. [Related pubchem assays: 1829 (Project Summary), 1814 (Primary HTS)]. The note with it: Homo sapiens. The assay is classed as functional.
Assay [5] is described as follows: Luminescence Cell-Based Dose Response HTS to Identify Activators of Luciferase Translation or Activity in H4 […] Cells. [Related pubchem assays: 1829 (Project Summary), 1814 (Primary HTS)]. It counts as functional.
Assay [6] has as its target Neuropeptide Y receptor type 2 (Homo sapiens, UniProt P49146). The assay is classed as functional, cell-based.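 Note: HEK293 cells expressing the receptor and a CNG channel; stimulus was NPY near EC95 followed by isoproterenol to raise cAMP; antagonist potency measured as restoring cAMP signal that NPY suppresses.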
Assay [7] addresses Neuropeptide Y receptor type 1 (Homo sapiens, UniProt P25929). The assay is classed as functional.
Assay [8] in a line: cAMP pathway inhibition in counterscreen cell line – TR-FRET cAMP detection, counter-screen for MC4R biased antagonist project, dose response (AID 602305).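 Note: U2OS cells stimulated with forskolin near its EC80 as the cAMP inducer; potency is for inhibition of forskolin-stimulated cAMP signaling.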 The assay is classed as functional, cell-based. (A counterscreen serves to expose hits that act by an unwanted route or on another target.)
The target of assay [9] is Melanocortin receptor 4 (Homo sapiens, UniProt P32245). The assay is described as follows: inhibitors of MC4R cAMP signaling – cell-based, TR-FRET, biased antagonists, dose response (AID 602298).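 Note: antagonist potency against agonist-stimulated cAMP production.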 The assay is classed as functional. (In general: TR-FRET usually uses a lanthanide donor and a delayed reading to cut background.)
Chain of Melanocortin receptor 4 (P32245 whole entry): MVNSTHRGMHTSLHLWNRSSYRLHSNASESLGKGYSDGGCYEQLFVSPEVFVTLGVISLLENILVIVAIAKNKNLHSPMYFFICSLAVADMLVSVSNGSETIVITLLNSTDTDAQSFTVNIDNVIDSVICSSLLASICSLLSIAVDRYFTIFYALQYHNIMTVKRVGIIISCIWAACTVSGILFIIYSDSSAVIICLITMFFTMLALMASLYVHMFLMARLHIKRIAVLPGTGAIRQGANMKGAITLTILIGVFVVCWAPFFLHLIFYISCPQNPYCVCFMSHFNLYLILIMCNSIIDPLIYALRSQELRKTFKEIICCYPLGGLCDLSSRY
In assay [10] the test system is Streptococcus. Briefly: GAS bacterial viability reduction – luminescence, BacTiter-Glo, strain UMAA2166, counter-screen for streptokinase expression inhibitor project, dose response (AID 2477). It counts as functional, organism-based.
The target in assay [11] is T1, Streptokinase A (Streptococcus pyogenes serotype M1, UniProt P10520).
T1 sequence (P10520 whole entry): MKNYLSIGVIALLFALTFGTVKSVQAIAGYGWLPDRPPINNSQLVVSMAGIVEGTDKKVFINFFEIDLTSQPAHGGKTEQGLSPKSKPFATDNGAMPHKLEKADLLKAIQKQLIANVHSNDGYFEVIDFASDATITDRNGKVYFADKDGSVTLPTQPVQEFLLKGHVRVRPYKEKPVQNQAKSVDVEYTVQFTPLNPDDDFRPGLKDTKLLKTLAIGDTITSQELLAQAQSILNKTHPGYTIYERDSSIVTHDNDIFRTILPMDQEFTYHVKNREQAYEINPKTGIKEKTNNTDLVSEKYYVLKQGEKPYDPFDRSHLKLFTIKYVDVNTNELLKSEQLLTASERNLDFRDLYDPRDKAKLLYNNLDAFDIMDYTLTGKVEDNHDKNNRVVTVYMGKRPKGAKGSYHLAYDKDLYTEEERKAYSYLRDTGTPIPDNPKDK
Briefly: Absorbance Microorganism-Based Dose Response Follow up to Identify Inhibitors of Streptokinase Expression. [Related pubchem assays: 1677 (Project Summary), 1915, 1914, 1902 (Retest at Dose), 1900 (Counter Screen), 1662 (Primary HTS)]. It counts as functional, Streptococcus pyogenes M1 GAS.

The nature of assay [12]: Vero E6 cell cytotoxicity, dose response, cytotoxicity control for non-replicating M. tuberculosis project, secondary assay (AID 492998). It counts as functional, VeroE6. To be noted: Vero C1008.
Assay [13] concerns INS1. Briefly: INS-1E survival protection against cytokine death – cell-based, luminescence, retest, dose response (AID 449756).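 Note: cell death triggered by IL-1 beta plus TNF-alpha plus IFN-gamma mixture; protective hits raise ATP signal compared with cytokine alone wells.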 It counts as functional. To be noted: Rattus norvegicus.
A short description of assay [14]: Fluorescence-based cell-based high throughput dose response assay for inhibitors of the interaction of nucleotide-binding oligomerization domain containing 2 (NOD2) and the receptor-interacting serine-threonine kinase 2 (RIPK2). It counts as functional. To be noted: Homo sapiens.
Assay [15] in a line: HepG2 cell cytotoxicity, dose response, cytotoxicity control for non-replicating M. tuberculosis project (AID 489018). The assay is classed as functional. The note with it: Mycobacterium tuberculosis.
Assay [16] deals with Paired box protein Pax-8 (Homo sapiens, UniProt Q06710). Briefly: PAX8 transcriptional activity inhibition in RMG-I – RMG-I cells, luciferase, cherry-pick, dose response (AID 687027).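 Note: luciferase reporter driven by Pax8 target thyroperoxidase promoter measured by SteadyGlo luminescence.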 It counts as functional, cell-based.
Chain of Paired box protein Pax-8 (Q06710 whole entry): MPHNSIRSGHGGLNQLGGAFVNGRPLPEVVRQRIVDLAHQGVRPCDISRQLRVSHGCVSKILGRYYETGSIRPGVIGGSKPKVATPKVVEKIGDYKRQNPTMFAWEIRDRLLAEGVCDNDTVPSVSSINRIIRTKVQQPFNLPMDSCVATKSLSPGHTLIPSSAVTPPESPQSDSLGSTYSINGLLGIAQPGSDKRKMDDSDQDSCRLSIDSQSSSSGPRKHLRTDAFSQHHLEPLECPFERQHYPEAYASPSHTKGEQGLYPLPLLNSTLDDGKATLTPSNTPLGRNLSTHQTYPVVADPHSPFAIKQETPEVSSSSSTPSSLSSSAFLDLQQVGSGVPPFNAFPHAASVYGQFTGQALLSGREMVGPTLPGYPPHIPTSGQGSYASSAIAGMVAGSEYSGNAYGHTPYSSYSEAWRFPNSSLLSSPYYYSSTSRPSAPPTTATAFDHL
Assay [17] can be described thus: Luminescence-based dose response cell-based high throughput screening assay for cytotoxic compounds using the IEC-6 intestinal epithelial cell line. [Related pubchem assays: 1858 (Summary AID.), 1825 (Counterscreen.), 1907 (Confirmation screen.)]. The assay is classed as functional.
Assay [18] in a line: THP-1 cell cytotoxicity, dose response, cytotoxicity control for non-replicating M. tuberculosis project (AID 489025). The assay is classed as functional.
Assay [19] can be described thus: microbe, parasite or virus in culture. It counts as functional. The note with it: Mycobacterium tuberculosis.
Assay [20] addresses T2, Rac GTPase-activating protein 1 (Homo sapiens, UniProt Q9H0H5).
T2 sequence (Q9H0H5 whole entry): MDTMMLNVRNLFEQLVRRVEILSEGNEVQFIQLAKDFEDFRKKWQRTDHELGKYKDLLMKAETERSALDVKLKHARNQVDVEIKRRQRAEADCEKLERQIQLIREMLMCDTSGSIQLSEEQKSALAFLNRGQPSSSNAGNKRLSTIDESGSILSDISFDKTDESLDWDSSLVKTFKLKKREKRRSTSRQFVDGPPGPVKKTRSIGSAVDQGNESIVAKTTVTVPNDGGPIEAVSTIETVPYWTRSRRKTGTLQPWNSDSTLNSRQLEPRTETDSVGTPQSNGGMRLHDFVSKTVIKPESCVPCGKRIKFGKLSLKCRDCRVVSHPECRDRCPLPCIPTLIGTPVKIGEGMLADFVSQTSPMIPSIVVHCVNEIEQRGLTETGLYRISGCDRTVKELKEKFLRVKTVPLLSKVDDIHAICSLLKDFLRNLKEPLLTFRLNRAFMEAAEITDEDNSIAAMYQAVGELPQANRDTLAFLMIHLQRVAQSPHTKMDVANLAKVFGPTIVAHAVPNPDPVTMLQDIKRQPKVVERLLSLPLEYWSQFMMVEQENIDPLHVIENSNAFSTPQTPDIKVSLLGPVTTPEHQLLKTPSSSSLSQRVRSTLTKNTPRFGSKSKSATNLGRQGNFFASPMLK
Briefly: blockers of MgcRacGAP-driven Rac1 GTP hydrolysis – biochemical, ADP Hunter fluorescence, primary and confirmatory, confirmation (AID 624330). The assay is classed as functional.

Assay [21] can be described thus: cells. It counts as functional.
For assay [22], the target named is Photoreceptor-specific nuclear receptor (Homo sapiens, UniProt Q9Y5X4). It counts as functional, cell-based.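 Note: CHO-S cells with Gal4-NCOR and VP16-NR2E3 two-hybrid luciferase reporter.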
Chain of Photoreceptor-specific nuclear receptor (Q9Y5X4 whole entry, the tested form may be a part): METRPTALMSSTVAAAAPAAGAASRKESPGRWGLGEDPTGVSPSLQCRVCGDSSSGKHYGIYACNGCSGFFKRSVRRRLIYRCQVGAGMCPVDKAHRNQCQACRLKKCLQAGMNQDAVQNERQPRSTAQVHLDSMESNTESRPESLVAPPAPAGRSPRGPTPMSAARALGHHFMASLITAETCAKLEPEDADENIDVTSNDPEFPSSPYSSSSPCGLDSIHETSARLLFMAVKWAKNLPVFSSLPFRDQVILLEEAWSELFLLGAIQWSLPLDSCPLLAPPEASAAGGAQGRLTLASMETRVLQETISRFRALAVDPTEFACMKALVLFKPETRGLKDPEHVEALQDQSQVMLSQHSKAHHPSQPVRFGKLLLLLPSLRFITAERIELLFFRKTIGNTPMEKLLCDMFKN
The target of assay [23] is G-protein coupled receptor 55 (Homo sapiens, UniProt Q9Y2T6). The assay is described as follows: inhibition of LPI-stimulated GPR55 beta-arrestin translocation – imaging, U2OS, beta-arrestin-GFP, LPI agonist, primary screen (AID 2013).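 Note: antagonist potency measured as reduced agonist-driven arrestin aggregation.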 The assay is classed as functional.
Chain of G-protein coupled receptor 55 (Q9Y2T6 whole entry): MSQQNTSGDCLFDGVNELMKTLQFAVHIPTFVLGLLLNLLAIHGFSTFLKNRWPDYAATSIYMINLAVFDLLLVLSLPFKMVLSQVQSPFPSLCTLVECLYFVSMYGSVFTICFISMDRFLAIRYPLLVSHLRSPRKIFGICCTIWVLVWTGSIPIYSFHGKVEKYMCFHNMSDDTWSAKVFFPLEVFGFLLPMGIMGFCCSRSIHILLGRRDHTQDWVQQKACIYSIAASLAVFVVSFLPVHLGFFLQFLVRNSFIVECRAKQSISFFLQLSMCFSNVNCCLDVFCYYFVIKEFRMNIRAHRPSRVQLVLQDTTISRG
Assay [24] is described as follows: viability loss in HeLa cells – cytotoxicity control for MgcRacGAP inhibitor project, dose response (AID 624300). The assay is classed as functional.
In assay [25] the target is Protein-tyrosine kinase 2-beta (Homo sapiens, UniProt Q14289).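 Note: potency of inhibitors of PYK2 kinase phosphorylation of poly-GT substrate.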
Chain of Protein-tyrosine kinase 2-beta (Q14289 whole entry): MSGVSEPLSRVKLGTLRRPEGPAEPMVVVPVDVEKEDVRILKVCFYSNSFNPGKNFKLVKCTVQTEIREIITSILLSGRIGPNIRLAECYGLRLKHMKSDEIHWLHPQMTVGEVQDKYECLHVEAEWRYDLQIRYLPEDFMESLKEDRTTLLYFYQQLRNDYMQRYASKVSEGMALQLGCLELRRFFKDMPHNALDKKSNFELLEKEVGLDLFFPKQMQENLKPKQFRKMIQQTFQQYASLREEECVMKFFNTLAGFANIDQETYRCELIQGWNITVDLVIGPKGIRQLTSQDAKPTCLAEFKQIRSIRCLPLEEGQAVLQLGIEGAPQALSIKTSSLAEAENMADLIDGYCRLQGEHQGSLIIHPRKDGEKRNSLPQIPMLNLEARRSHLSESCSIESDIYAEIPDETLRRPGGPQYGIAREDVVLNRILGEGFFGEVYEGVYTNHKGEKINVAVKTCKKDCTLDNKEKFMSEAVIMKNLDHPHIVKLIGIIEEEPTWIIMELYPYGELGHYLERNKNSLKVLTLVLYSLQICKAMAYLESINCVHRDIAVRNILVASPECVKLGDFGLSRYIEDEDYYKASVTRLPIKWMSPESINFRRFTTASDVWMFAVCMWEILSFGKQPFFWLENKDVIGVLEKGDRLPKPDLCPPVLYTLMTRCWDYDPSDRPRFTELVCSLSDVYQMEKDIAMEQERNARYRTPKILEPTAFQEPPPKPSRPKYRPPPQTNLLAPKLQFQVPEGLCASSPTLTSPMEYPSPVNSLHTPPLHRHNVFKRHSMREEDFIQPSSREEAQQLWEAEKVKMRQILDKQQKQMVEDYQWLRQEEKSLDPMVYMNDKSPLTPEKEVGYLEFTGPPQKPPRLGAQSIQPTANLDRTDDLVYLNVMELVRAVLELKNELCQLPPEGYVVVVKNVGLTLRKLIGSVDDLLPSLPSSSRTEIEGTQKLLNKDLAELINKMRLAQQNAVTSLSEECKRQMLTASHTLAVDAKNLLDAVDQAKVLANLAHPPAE
Assay [26] addresses Dual specificity tyrosine-phosphorylation-regulated kinase 1A (Rattus norvegicus, UniProt Q63470). It counts as biochemical, Homo sapiens.
Assay [27] deals with HEK293. The assay is described as follows: EBV LMP1 TES2 canonical NF-kB signalling blockers – cell-based, HEK293, luciferase, cherry-pick, dose response (AID 588343). It counts as functional. The note with it: Homo sapiens.
For assay [28], the target named is Mitogen-activated protein kinase 10 (Homo sapiens, UniProt P53779). Briefly: Dose response biochemical screening assay for inhibitors of c-Jun N-Terminal Kinase 3 (JNK3). [Related pubchem assays: 746 ].
Chain of Mitogen-activated protein kinase 10 (P53779 whole entry): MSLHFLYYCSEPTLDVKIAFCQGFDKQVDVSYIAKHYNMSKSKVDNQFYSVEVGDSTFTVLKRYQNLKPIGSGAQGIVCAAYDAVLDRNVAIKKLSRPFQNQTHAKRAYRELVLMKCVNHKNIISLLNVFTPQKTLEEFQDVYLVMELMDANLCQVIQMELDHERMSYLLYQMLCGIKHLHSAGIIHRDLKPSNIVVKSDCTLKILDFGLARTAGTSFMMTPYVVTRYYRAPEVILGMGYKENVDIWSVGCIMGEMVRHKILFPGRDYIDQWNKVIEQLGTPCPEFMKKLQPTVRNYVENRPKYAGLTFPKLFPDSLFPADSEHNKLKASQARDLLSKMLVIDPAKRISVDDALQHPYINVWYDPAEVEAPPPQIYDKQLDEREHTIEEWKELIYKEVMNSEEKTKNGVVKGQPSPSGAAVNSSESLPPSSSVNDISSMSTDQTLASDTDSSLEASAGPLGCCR
Assay [29] deals with T3, Short transient receptor potential channel 4 (Mus musculus, UniProt Q9QUQ5).
T3 sequence (Q9QUQ5 whole entry): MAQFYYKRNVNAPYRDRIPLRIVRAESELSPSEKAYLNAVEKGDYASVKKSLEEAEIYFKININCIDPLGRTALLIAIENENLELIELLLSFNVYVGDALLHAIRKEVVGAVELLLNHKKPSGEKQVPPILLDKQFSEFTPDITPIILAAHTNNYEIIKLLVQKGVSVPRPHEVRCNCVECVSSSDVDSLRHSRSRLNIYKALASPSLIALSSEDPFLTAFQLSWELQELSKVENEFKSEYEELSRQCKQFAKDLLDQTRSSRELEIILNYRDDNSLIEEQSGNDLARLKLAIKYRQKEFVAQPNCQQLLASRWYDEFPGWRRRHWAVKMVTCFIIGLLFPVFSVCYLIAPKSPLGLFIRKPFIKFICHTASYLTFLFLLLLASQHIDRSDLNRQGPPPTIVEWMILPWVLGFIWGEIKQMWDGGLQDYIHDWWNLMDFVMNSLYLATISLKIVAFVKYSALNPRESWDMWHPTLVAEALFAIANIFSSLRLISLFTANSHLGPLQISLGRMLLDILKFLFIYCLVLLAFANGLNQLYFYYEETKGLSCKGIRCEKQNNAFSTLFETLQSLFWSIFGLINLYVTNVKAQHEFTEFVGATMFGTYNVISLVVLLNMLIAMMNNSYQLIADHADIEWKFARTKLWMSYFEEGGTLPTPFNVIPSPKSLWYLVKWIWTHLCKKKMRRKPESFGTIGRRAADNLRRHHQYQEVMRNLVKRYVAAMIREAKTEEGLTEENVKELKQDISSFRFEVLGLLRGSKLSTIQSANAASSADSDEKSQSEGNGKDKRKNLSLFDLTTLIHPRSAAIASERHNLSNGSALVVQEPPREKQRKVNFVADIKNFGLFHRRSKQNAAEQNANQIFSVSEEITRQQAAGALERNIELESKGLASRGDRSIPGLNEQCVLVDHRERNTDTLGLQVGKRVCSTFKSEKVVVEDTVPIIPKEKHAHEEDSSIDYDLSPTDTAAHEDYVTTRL
Briefly: block of DAMGO-driven TRPC4 calcium entry – cell-based, HEK293 TRPC4/mu-opioid, Fluo-4 calcium, dose response (AID 434942).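 Note: potency of inhibitors blocking the TRPC4 calcium response.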 It counts as functional.

Active and inactive are the calls of the source.

Chain of Neuropeptide Y receptor type 2 (P49146 whole entry): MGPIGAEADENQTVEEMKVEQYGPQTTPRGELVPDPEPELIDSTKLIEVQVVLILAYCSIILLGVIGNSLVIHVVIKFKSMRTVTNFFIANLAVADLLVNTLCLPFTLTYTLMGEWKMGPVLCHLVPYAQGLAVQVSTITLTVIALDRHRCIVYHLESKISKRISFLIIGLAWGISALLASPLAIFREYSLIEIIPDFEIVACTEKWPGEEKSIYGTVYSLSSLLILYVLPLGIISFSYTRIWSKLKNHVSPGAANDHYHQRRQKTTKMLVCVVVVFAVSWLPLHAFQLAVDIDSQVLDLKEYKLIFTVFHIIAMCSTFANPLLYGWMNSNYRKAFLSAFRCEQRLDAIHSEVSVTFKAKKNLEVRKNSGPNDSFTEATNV
Chain of Neuropeptide Y receptor type 1 (P25929 whole entry): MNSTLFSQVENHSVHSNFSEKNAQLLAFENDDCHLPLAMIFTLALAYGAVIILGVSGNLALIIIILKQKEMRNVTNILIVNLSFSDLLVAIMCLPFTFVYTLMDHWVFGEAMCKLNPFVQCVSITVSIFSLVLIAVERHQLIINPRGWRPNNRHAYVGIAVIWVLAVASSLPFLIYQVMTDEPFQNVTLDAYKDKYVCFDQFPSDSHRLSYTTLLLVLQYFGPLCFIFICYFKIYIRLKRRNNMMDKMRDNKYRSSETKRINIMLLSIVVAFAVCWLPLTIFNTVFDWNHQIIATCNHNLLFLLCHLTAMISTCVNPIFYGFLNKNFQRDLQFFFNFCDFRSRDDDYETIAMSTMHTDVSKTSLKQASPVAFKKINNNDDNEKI
Chain of 14-3-3 protein gamma (P61981 whole entry): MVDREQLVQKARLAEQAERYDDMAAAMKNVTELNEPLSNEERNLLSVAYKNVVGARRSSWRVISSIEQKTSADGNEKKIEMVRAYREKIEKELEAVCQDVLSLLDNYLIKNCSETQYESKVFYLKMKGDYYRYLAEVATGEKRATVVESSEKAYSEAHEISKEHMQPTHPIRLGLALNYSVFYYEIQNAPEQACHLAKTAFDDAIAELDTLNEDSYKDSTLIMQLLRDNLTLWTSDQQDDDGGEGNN

Regarding `Cc1csc(NC(=O)CSc2nsc(SCC(=O)Nc3nc(C)cs3)c2C#N)n1`, the IC50 in [1] is on record as > 50 µM (not active). Besides, the EC50 in [2] is 11 µM (active); in [3], 12.4 µM (active); in assay [4] it was > 120 µM (not active); in assay [5] it was 1.86 µM (active).
With `Cc1cccc(NC(S)=NN=C(S)NCc2ccccc2)c1`, the half-maximal inhibitory concentration (IC50) in assay [6] and in assay [7] was > 35 µM (not active) in each case.
Regarding `Cc1ccc(Sc2ccc(NC(=O)c3ccc(F)cc3)cc2C#N)cc1`, the IC50 in [8] and in [9] was > 64.6 µM (inactive) in each case. Moreover, the half-maximal effective concentration (EC50) in assay [10] and in assay [11] was > 500 µM (not active) throughout.
In the case of `CN1C2CCC1/C(=C/c1ccccn1)C(=O)/C2=C\c1ccccn1`, the CC50 was 1.06 µM (active) in assay [12]; 1.49 µM (active) in [15]; 0.894 µM (active) in assay [18]; 1.69 µM (active) in assay [19]; 12.5 µM (active) in assay [24]. In addition, the AC50 in assay [13] is 1.59 µM (active); in assay [16] it was 0.852 µM (active). Moreover, the IC50 in assay [14] was 2.58 µM (active); in [17] it was 1.76 µM (active); in assay [20], 62.5 µM (active); in assay [21], 7.83 µM (active); in assay [22], 1.73 µM (active); in assay [23] it was 3.25 µM (active).
Take `COC(=O)c1cccc2c1-c1ccccc1/C2=N/O`: the half-maximal inhibitory concentration (IC50) in assay [25] is 6.71 µM (active); in assay [28], 8.81 µM (active). For the same compound, the values for the AC50 in [26] and in assay [27] were 0.434 µM (active) and 28 µM (active), respectively. Further, in [29], the concentration giving a half-maximal response (EC50) was 2.99 µM (active).
